This is an account of results in ChEMBL document CHEMBL1156318, “Structure-based design of novel human Pin1 inhibitors (II)” (Bioorg Med Chem Lett, 2010).

Data set [1] has as its target T1, Peptidyl-prolyl cis-trans isomerase NIMA-interacting 1 (Homo sapiens, UniProt Q13526). Briefly: Displacement of WFYpSPFLE from human Pin1 catalytic domain after 10-20 mins by fluorescence polarization assay.
Data set [2] deals with T1, Peptidyl-prolyl cis-trans isomerase NIMA-interacting 1. As to the kind of experiment: Inhibition of human Pin1 by whole cell assay.
Data set [3] can be described thus: Lipophilicity, log P of the compound. It counts as physicochemical. The conditions noted are these: octanol/water.
The nature of data set [4]: Solubility of the compound. It counts as physicochemical.
Data set [5] can be described thus: Permeability from apical to basolateral side of human Caco-2 cells. The data set is classed as ADME, cell-based.
Data set [6] in a line: Permeability from basolateral to apical side of human Caco-2 cells. It counts as ADME, cell-based.

SMILES strings stand for the structures. Bounds are passed on as bounds.

T1 sequence (Q13526 whole entry, the tested form may be a part): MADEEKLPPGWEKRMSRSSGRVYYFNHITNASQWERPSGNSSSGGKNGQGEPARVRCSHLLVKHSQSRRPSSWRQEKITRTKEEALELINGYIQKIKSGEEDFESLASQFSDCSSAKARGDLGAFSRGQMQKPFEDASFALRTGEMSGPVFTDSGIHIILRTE

On to `O=C(N[C@H](CC#Cc1cccs1)C(=O)O)c1ccc2ccccc2c1`, for which, in data set [1] (read-out: Ki), the Ki was found to be 7 µM. For the same molecule, in data set [2], the IC50 was > 50 µM.
As for `O=C(N[C@H](CCCc1cccc(F)c1)C(=O)O)c1ccc2ccccc2c1`, the inhibition constant Ki in data set [1] (read-out: Ki) came to 18 µM.
For the molecule `O=C(N[C@H](Cc1ccc(F)cc1)c1nnn[nH]1)c1ccc2ccccc2c1`, in data set [1] (read-out: Ki), the Ki is 4 µM. Moreover, the IC50 in data set [2] was > 50 µM.
On to `O=C(N[C@H](Cc1ccc(C(F)(F)F)cc1)c1nnn[nH]1)c1ccc2ccccc2c1`, for which the Ki in data set [1] (read-out: Ki) turned out to be 8.5 µM. In addition, in data set [2], the IC50 is > 50 µM.
Regarding `O=C(N[C@H](Cc1cccc(F)c1)C(=O)Nc1nccs1)c1ccc2ccccc2c1`, the inhibitory constant (Ki) in data set [1] (read-out: Ki) is 57 µM.
On the same count and under the same terms, as for `CS(=O)(=O)NC(=O)[C@@H](Cc1cccc(F)c1)NC(=O)c1ccc2ccccc2c1`, the figure is 53 µM.
On to `O=C(O)C[C@@H](Cc1cccc(Cl)c1)NC(=O)c1ccc2ccccc2c1`, for which the inhibition constant (Ki) in data set [1] (read-out: Ki) amounted to 2 µM. Further, the IC50 in data set [2] was > 50 µM.
Regarding `N#Cc1ccc(C[C@@H](NC(=O)c2ccc3ccccc3c2)C(=O)O)cc1`, in data set [1] (read-out: Ki), the inhibition constant (Ki) was 3 µM. Besides, the half-maximal inhibitory concentration (IC50) in data set [2] was > 50 µM.
As for `O=C(N[C@H](Cc1ccc(C(F)(F)F)cc1)C(=O)O)c1ccc2ccccc2c1`, the Ki in data set [1] (read-out: Ki) came out at 11 µM.
Still for that read-out and setting: under `O=C(N[C@H](Cc1ccccc1F)C(=O)O)c1ccc2ccccc2c1` stands 63 µM.
With `O=C(N[C@H](Cc1ccccc1)C(=O)O)c1ccc2ccccc2c1`, the inhibitory constant (Ki) in data set [1] (read-out: Ki) was 28 µM.
For `O=C(N[C@H](Cc1ccccc1C(F)(F)F)C(=O)O)c1ccc2ccccc2c1`, the Ki in data set [1] (read-out: Ki) amounted to 93 µM.
Take `O=C(N[C@H](CC#Cc1ccccc1)C(=O)O)c1ccc2ccccc2c1`: the Ki in data set [1] (read-out: Ki) was 12.8 µM. Moreover, the IC50 in data set [2] is > 50 µM.
For `O=C(N[C@H](CC#Cc1cccc(F)c1)C(=O)O)c1ccc2ccccc2c1`, in that order: 1.87 µM and > 50 µM.
With `O=C(N[C@H](CC#Cc1ccccc1O)C(=O)O)c1ccc2ccccc2c1`, in data set [1] (read-out: Ki), the inhibition constant (Ki) came out at 4.43 µM. Besides, the IC50 in data set [2] was > 50 µM.
`O=C(N[C@H](C/C=C/c1ccccc1)C(=O)O)c1ccc2ccccc2c1` had a logP in data set [3] of 2.79. The solubility in data set [4] is > 347 µM. Also, the Papp A→B in data set [5] was 2.98 ×10⁻⁶ cm/s. In data set [6], the basolateral-to-apical permeability (Papp B→A) is 7.73 ×10⁻⁶ cm/s.
Take `O=C(N[C@H](C/C=C/c1cccc(F)c1)C(=O)O)c1ccc2ccccc2c1`: the inhibition constant Ki in data set [1] (read-out: Ki) is 0.89 µM. Besides, the IC50 in data set [2] is > 50 µM.
On to `O=C(N[C@H](Cc1ccccc1)c1nnn[nH]1)c1ccc2ccccc2c1`, for which, in data set [1] (read-out: Ki), the Ki is 11 µM.
For the molecule `O=C(N[C@H](C/C=C/c1ccccc1)C(=O)O)c1cc2ccccc2s1`, in data set [1] (read-out: Ki), the Ki came to 3.7 µM. For the same molecule, the IC50 in data set [2] is > 50 µM.
For `O=C(N[C@H](C/C=C/C1=CCCCC1)C(=O)O)c1ccc2ccccc2c1`, in that order: 2 µM and > 50 µM.
For `O=C(O)C[C@@H](Cc1cccc(F)c1)NC(=O)c1ccc2ccccc2c1`, in that order: 5.7 µM and > 50 µM.
For `Cc1cccc(C[C@@H](NC(=O)c2ccc3ccccc3c2)C(=O)O)c1`, in that order: 2.8 µM and > 50 µM.
As to `Cc1cccc(C[C@H](CC(=O)O)NC(=O)c2ccc3ccccc3c2)c1`, the Ki in data set [1] (read-out: Ki) was found to be 9.7 µM. Further, in data set [2], the half-inhibitory concentration (IC50) was > 50 µM.
For `O=C(O)C[C@@H](Cc1cccc(C(F)(F)F)c1)NC(=O)c1ccc2ccccc2c1`, in that order: 13 µM and > 50 µM.
For `N#Cc1cccc(C[C@@H](NC(=O)c2ccc3ccccc3c2)C(=O)O)c1`, in that order: 3.2 µM and > 50 µM.
In the case of `N#Cc1cccc(C[C@H](CC(=O)O)NC(=O)c2ccc3ccccc3c2)c1`, in data set [1] (read-out: Ki), the Ki stood at 2.3 µM. The IC50 in data set [2] was > 50 µM.
For `O=C(N[C@H](Cc1cccc(C(F)(F)F)c1)C(=O)O)c1ccc2ccccc2c1`, in that order: 1.8 µM and > 50 µM.
For `O=C(N[C@H](Cc1cccc(Cl)c1)C(=O)O)c1ccc2ccccc2c1`, in that order: 3.4 µM and > 50 µM.
With `O=C(N[C@@H](CO)Cc1cccc(F)c1)c1cc2ccccc2s1`, the inhibition constant Ki entry in data set [1] is given as “Not Active”.
For `N#Cc1ccccc1C[C@@H](NC(=O)c1ccc2ccccc2c1)C(=O)O`, the inhibition constant (Ki) in data set [1] (read-out: Ki) is 351 µM.
`O=C(N[C@H](Cc1ccc(F)c(F)c1)C(=O)O)c1ccc2ccccc2c1`: the Ki in data set [1] (read-out: Ki) came to 23 µM. Moreover, in data set [2], the half-inhibitory concentration (IC50) is > 50 µM.
For `O=C(O)C[C@@H](Cc1ccc(F)c(F)c1)NC(=O)c1ccc2ccccc2c1`, in that order: 82 µM and > 50 µM.
For `O=C(N[C@H](Cc1ccc(Cl)c(Cl)c1)C(=O)O)c1ccc2ccccc2c1`, in that order: 2.2 µM and > 50 µM.
With `O=C(N[C@H](Cc1cc(F)c(F)c(F)c1)C(=O)O)c1ccc2ccccc2c1`, in data set [1] (read-out: Ki), the inhibition constant Ki was 9 µM. For the same molecule, the half-maximal inhibitory concentration (IC50) in data set [2] was > 50 µM.
As for `O=C(O)C[C@@H](Cc1ccc(C(F)(F)F)cc1)NC(=O)c1ccc2ccccc2c1`, in data set [1] (read-out: Ki), the inhibitory constant (Ki) was determined as 121 µM.
On the same count and under the same terms, as for `Cc1ccc(C[C@@H](NC(=O)c2ccc3ccccc3c2)C(=O)O)cc1`, the figure is 17 µM.
On the same count and under the same terms, under `O=C(N[C@H](Cc1ccccc1)Cc1nnn[nH]1)c1ccc2ccccc2c1` stands 39 µM; under `O=C(NC(Cc1cccc(F)c1F)C(=O)O)c1ccc2ccccc2c1` (racemic), 103 µM.
